Source: a melting point compilation (Tetko et al.; mined from patent text by program, amines drawn as free bases though some values may be those of a salt)

| SMILES | melting point [°C] |
| --- | --- |
| Cc1ccc(C2Sc3ccccc3NC(=O)C2COS(C)(=O)=O)cc1 (stereo not given) | 207 |
| Cc1cc(C2CCN(S(=O)(=O)C3(C(=O)NO)CCOCC3)CC2)ccc1-c1cccc(OC[C@H](O)CO)c1 | 141 to 145 |
| CC1(C)Oc2ccc(C#N)cc2[C@@H](NC=O)[C@@H]1O (relative stereo) | 228 to 230 |
| O=C(C=P(c1ccccc1)(c1ccccc1)c1ccccc1)CCCc1ccccc1 | 93 to 95 |
| CN(C)CCN(c1ccc(N)cc1)S(C)(=O)=O | 147 to 148 |
| Oc1ccc(C(F)(F)F)cc1C=S | 50 to 52 |
| N#Cc1c(I)[nH]c(I)c1I | 257 to 258 |
| CC(=O)OC1Cc2ccccc2N(C(N)=O)c2ccccc21 (stereo not given) | 185 |
| O=C(O)Cn1cccc1 | 88 to 90 |
| Cc1cc(C=O)ccc1C=O | 71 to 72 |
| NS(=O)(=O)c1ccc(-c2cc3n(c2-c2ccc(F)cc2)CCC3)cc1 | 207 |
| O=C(Nc1ccccc1C(c1ccc(O)cc1)c1ccc(O)cc1)C1CCCCC1 | 220 to 223 |
| C=CCN1CCC(Nc2ccc(Cl)cc2)CC1 | 90 |
| COc1ccccc1C1(O)C(O)CC(c2ccccc2)(c2ccccc2)C2CN(C(=O)Cc3ccccc3OCc3ccccc3)CC21 (stereo not given) | 158 |
| COCC(=O)Nc1cccc2c1C1(COc3cc4c(cc31)OCCO4)C(=O)N2C (stereo not given) | 237 to 239 |
| COC(=O)c1ccc(S(C)(=O)=O)c(C=O)c1Cl | 98 to 105 |
| COCCNC(=O)c1cccc(-c2ccc3c(c2)C(c2cc(Cl)ccc2Cl)CC3)c1 (stereo not given) | 116 |
| CSc1cccc2c1CCn1cc(-c3ccccc3)nc1C2OC1CCN(C)CC1 (stereo not given) | 134 |
| O=C(O)C=C1CC(C(=O)OCc2ccccc2)Nc2cc(Cl)cc(Cl)c21 (racemic) | 210 to 212 |
| CC(=O)Oc1c(C2CCN(CCCCNC(=O)c3ccc(-c4ccc(C#N)cc4)cc3)CC2)ccc2c1CCCC2 | 140 to 150 |
| C=CCOC(=O)c1ccc(N)cc1O | 58 to 59 |
| Cc1nc2c(cc1C(=O)N(C(=N)N)C(=O)OC(C)(C)C)CCCCC2CO (stereo not given) | 98 to 100 |
| O=C(Nc1cnccn1)Nc1cccc2c1C1CC3(CCN1C2=O)SCCS3 (stereo not given) | 236 |

| SMILES | melting point [°C] |
| --- | --- |
| NC1=CC2=C(CC1)CCc1c2[nH]c(=O)c(=O)n1Cc1ccccc1 | 290 |
| COc1cc2c(c3c1OC(C)(C)C3)C(c1cccc(NC(=O)C3CCC(=O)N3)c1)=NC(C)(C)C2 (stereo not given) | 145 to 147 |
| CC[C@H](C)C(OCc1ccccc1F)[C@H]1[C@H]([N+](=O)[O-])[C@H](c2ccccc2)N[C@@H]1C(=O)NCCC(=O)O (stereo not given in full) | 136 to 138 |
| O=C1c2ccc(Cl)cc2CN2C(=NO)CCC12 (stereo not given) | 249 to 252 |
| CCOC(=O)CN1CCN(c2ccccc2[N+](=O)[O-])CC1 | 122 |
| COc1ccc([C@H](Sc2cc(Oc3ccccc3)ccc2N)[C@@H](O)C(=O)O)cc1 | 151 to 152 |
| Cc1ccc(S(=O)(=O)Nc2cccc([N+](=O)[O-])c2N)cc1 | 195 |
| CCc1c(C(=O)O)[nH]c2c1C(=O)CC(C)(C)C2 | > 198 |
| O=C(O)/C=C/c1ccc(-c2ccc(O)c(C34CC5CC(CC(C5)C3)C4)c2)c(Cl)c1 | 257 to 259 |
| CSC(C(=O)O)c1ccsc1 (stereo not given) | 73.5 to 74 |
| CCN1C(=O)N(c2ccc([N+](=O)[O-])c(C(F)(F)F)c2)C(=O)C1(C)C | 110 to 111 |
| Fc1cccc(-c2cn([C@H]3CN4CCC3CC4)nn2)c1 | 120 |
| CCCCN1C(=O)CSC(=NO)C1C (stereo not given) | 118 to 120 |
| COC(=O)CCNC(=O)C(=Cc1ccccc1)CSC(C)=O | 54 |
| Oc1ccc([C@@H]2C[C@H]2c2ccccc2)cc1 (relative stereo) | 78 to 79 |
| CN1CCC(Oc2c(F)c(F)c(F)c(F)c2F)(c2ccc(C(F)(F)F)cc2)CC1 | 45 to 48 |
| O=c1ccc2cccc(-c3cccc4ccccc34)c2[nH]1 | 198 to 199 |
| Cc1ccc(C2=N[C@H](c3ccccc3)CO2)cc1C#CCN(O)C(N)=O | 169 to 170 |
| [N-]=[N+]=NC1CC(n2cc(C=CBr)c(=O)[nH]c2=O)OC1CCl (stereo not given) | 124 to 125 |
| NC(=S)C=C(N)CCOCc1ccccc1 | 93 to 94 |
| CSc1sc(-c2nnn(C)n2)c2c1C(=O)CC(C)(C)C2 | 233 to 235 |
| O=C(NC1CCCCC1)Oc1ccccc1-c1ccccc1 | 119 to 121 |

Results, then the compound that gave them:

| melting point [°C] | SMILES |
| --- | --- |
| 154 to 156 | C=Cc1cc(OC(C)=O)cc2nc(-c3ccc(OC(C)=O)c(F)c3)oc12 |
| 213 to 215 | O=C(O)C(=O)Nc1coc2ccc(Cl)cc2c1=O |
| 200 to 201 | COc1ccc2c(c1)cc(-c1ccccc1)n2-c1ccc(O)cc1 |
| 153 to 154 | Cc1ccc(NC(=O)c2ccc(CN3CCN(C)CC3)c(C(F)(F)F)c2)cc1-c1ccc2ccncc2c1 |
| 159 to 161 | CC(C)C[C@H](NS(=O)(=O)c1cccc2ccccc12)C(=O)N[C@H]1CCCOC1O (stereo not given in full) |
| > 250 | CCc1nc2cnc3cc(O)ccc3c2n1CC(C)C |
| 197 to 202 | CC(=NNc1ccc(C2=NNC(=O)CC2)cc1)c1cnccn1 |
| > 210 | O=c1n(-c2cc(O)c(Cl)cc2F)nc2ccc(Cl)cn12 |
| 168 | CCCCc1nc2cscc2n1Cc1ccc(-c2ccccc2C(=O)O)cc1 |
| 137 to 141 | COc1cc2c3ccc(OC)c(OC)c3n(C(=O)c3ccc4ccccc4c3)c2cc1OC |
| 110 to 114 | COc1cc(Oc2cccc(C)c2)nc(C(=O)Nc2ccc(C)cc2)c1 |
| 120 to 121 | COc1ccc(-c2nc3cc(OC)cc(-c4ccco4)c3o2)cc1 |
| 165 to 167 | CC(C)c1ccc2nc3ccc(C(=O)NCCCCn4ccnc4)cn3c(=O)c2c1 |
| 137 to 139 | COc1ccc(C2=NN(c3ccc(CCO)cc3)C(=O)[C@H]3CC=CC[C@@H]23)cc1OC (relative stereo) |
| 274 | CC(=O)Nc1nc(-c2ccc(S(C)=O)cc2)cs1 (stereo not given) |
| 138 to 139 | COC(=O)C=Cc1ccc(OCCc2nc(-c3ccccc3)oc2C)nc1 |
| 364 to 368 | Cc1sc2nc3ccc(C(=O)O)cn3c(=O)c2c1C |
| 77 to 79 | CCOC(=O)C1(CS(=O)(=O)c2ccc(OC)cc2)CO1 (stereo not given) |
| 135 to 136 | CCOC(=O)C1CCN(c2nnc(NCc3ccc4c(c3)OCO4)c3ccncc23)CC1 |
| 211 to 214 | CC(C)N(Cc1nc(-c2ccccc2)no1)C(=O)COc1ccc(C(=O)O)cc1 |
| 131 to 133 | O=C1c2ccc(O)cc2OCN1CCO[N+](=O)[O-] |
| 139 to 140 | COc1ccnc(CSc2nc3cc4c(cc3[nH]2)OC(F)C(F)(F)O4)c1 (stereo not given) |
| 150 to 154 | C=Cc1cn(-c2ccccn2)c2c1C(=O)CC(C)(C)C2 |
| 80 to 81 | c1cc2c3c(cccc3c1)NN=N2 |
| 158 to 160 | CC(C)C(=O)c1c[nH]c2c(COC(=O)c3ccccc3)cccc2c1=O |
| 233 to 235 | Cc1cccc(-n2c(-c3sc(Nc4ccc(Cl)cc4)nc3-c3ccccc3)nc3ccccc3c2=O)c1 |
| 216 | CC1(C)Oc2ccc(Br)cc2C(n2ccccc2=O)=C1CN(O)C(N)=O |
| 73 to 74 | CC(C)(COc1ccccc1)C(=O)c1ccc(Br)cc1 |

| melting point [°C] | SMILES |
| --- | --- |
| 120 to 122 | Fc1ccc(-c2cn(CCC#Cc3ccccn3)nn2)cc1 |
| 126 to 130 | CC(C)(CO)Nc1nc(SCc2cccc(Oc3ccccc3)c2)nc2nc(N)sc12 |
| 212 to 216 | Cc1sc2c(Br)c3ccccc3c(-c3cc(C(C)C)c(O)c(C(C)C)c3)c2c1C |
| 205 to 210 | O=C1CCC(=O)N1[C@H]1CC[C@H](Nc2nccc(-n3nnc4ccccc43)n2)CC1 |
| 144 to 147 | CCCCc1nc(Cl)c(CNC(=O)OCC)n1Cc1ccc(-c2ccccc2C(=O)O)cc1 |
| 173 to 175 | Nc1nc2ccc(Cc3ccccc3)cc2s1 |
| 187 to 189 | C[Si](C)(C)c1ccc(NC(=O)NC(=O)c2c(F)cccc2F)cc1 |
| 120 | Cc1ccc(-c2nccc3c(CCl)cccc23)cc1 |
| 310 to 312 | Cc1nc2cc(C)c(C)cc2c(=O)[nH]1 |
| 153 to 155 | CCOC(=O)c1c(SC)nc(-c2ccc(SC)cc2)n(-c2ccc(C)cc2)c1=O |
| 213 to 215 | C/C(=C\c1ccc(NC(=O)c2cc([Si](C)(C)C)cc([Si](C)(C)C)c2)cc1F)C(=O)O |
| 207 | CC(=O)Oc1cccc(C(=O)Nc2ccc3ccc(Cl)nc3n2)c1 |
| 106 to 109 | CCC(CC)(CC(=O)c1ccc(OC)c(OC)c1)C(=O)O |
| 105 to 106 | COC(=O)[C@@H](Cc1ccccc1)NC(=O)OCc1cc2cc(-c3ccsc3)ccc2o1 |
| 104 to 106 | COCN(C(=O)CCl)c1c(OC)cccc1OC |
| 138 to 140 | CC(C)(C)C(=O)c1ccc(CN2C(=O)c3ccccc3C2=O)cc1 |
| 206 to 208 | Cc1cc(Nc2ncnc3ccc(-c4ccoc4)cc23)ccc1OCc1ccccn1 |
| 211 to 213 | CCCCn1c(=O)cc(O)c2ccccc21 |
| 250 to 251 | NC(=O)c1ccc(NC(=O)CCc2cnoc2-c2ccccc2)cc1 |
| 184 | O=C(O)Cc1nn(Cc2nc3cc(O)cc(O)c3s2)c(=O)c2ccccc12 |
| 246 | CS(=O)(=O)Nc1nccc(Oc2ccc3c(C(=O)Nc4ccc(F)c(C(F)(F)F)c4)cccc3c2)n1 |
| 226 | Brc1ccc2oc3ccc(Br)cc3c2c1 |
| 148 to 149 | Cc1oc(-c2ccccc2)nc1COc1ccc(CON=C2CC(C(=O)O)c3ccccc32)cc1 (stereo not given) |
| 155 | OCCN1CCC(=C2c3sccc3CCn3ccnc32)CC1 |
| 96 to 99 | CCCN(CCC)C(=O)C(C)n1c(-c2ccc(Cl)cc2)nc2cccnc21 (stereo not given) |
| 197 to 198 | Cc1noc(NC(=O)N2CCN(c3nccc(-c4ccc(F)cc4F)n3)CC2)c1C |
| 145 | CC(C)c1nc(-c2ccccn2)ncc1-c1ccc(Cl)cc1 |
